AEEA = NCCOCCOCC(=O)O

What all share (format): cell-based
Series [1] relates to accessible cell-surface thiols. In words: Fluorescent labelling of accessible cell-surface thiols. As to conditions: 50 μM for 10 minutes, then 10 μM atto 488 maleimide. From the text: Next, the inventors wanted to explore other cysteine-selective reactions in this context. […] The inventors first wanted to confirm that there are addressable, surface-exposed thiols on cells. To that end, the inventors labelled cells with a cell-impermeable, maleimide-functionalized fluorophore (FIG. 20).

Series [2] has as its system HeLa Kyoto cells transfected with EGFP-transmembrane-Halotag plasmid. Briefly: Halotag-tethering of CPP and delivery of NLS-mCherry-cR10 I. As to conditions: 5 μM NLS-mCherry-cR10 I, 20 μM Halo-R10, 1 hour 37° C. As for the experimental part: The arrowheads indicate nucleation zones stained by both peptides. b, Time-lapse of the co-delivery of NLS-mCherry-R10 II together with the Maleimide-R10-Cy5 peptide 13 on HeLa Kyoto cells in cell medium. The arrowheads indicate nucleation zones and blue arrowheads the appearance of nucleolar staining of the mCherry. c, Cellular uptake of NLS-mCherry-cR10 I in presence of chloroalkane-modified “Halo-R10” 17 on HeLa Kyoto cells transfected with EGFP-transmembrane-Halotag plasmid, 1 hour at 37° C. in cell medium. SP: Signal peptide, TM: transmembrane sequence. […] Uptake experiments with peptides 16 and 18-20 in FIG. 26. Scale bars 20 μm.
Transfected cells were treated with 1 μM JF646-Halotag-Iigand (Promega). […] The arrowheads show nucleoli with mCherry fluorescence. See also main text FIG. 3. Scale bars 20 μm.
To elaborate this further, the inventors generated a plasmid that would lead to expression of an EGFP reporter inside transfected cells along with a Halotag (England, C. G., Luo, H. & Cai, W. HaloTag technology: a versatile platform for biomedical applications. Bioconjug Chem 26, 975-986, doi:10.1021/acs.bioconjchem.5b00191 (2015)) on the cell surface (simplified plasmid map in FIG. 3c, validation of the plasmid and additional controls in FIG. 28). […]

Series [3] concerns cells. Briefly: Uptake of NLS-mCherry-R10 II with additional CPP in presence of serum. The conditions noted are these: for co-delivery efficiency in presence of serum: 37° C. As for the experimental part:
Scale bars 20 μm. b, Quantification of relative nuclear fluorescence intensities from microscopy pictures. n.s.=not significant, ***=P<0.0005.
Methods of cargo delivery that rely on endosomal escape are often susceptible to the presence of serum, as they require effective endocytosis of both the cargo and the endosomolytic agent (Erazo-Oliveras, A. et al. Protein delivery into live cells by incubation with an endosomolytic agent. Nat Methods 11, 861-867, doi:10.1038/nmeth.2998 (2014)). The inventors hypothesized that peptide 5 would likely react with thiols in the serum, but the co-delivery with 2 (Cys-R10) should still function. […] Reduction in efficiency in presence of large amounts of serum may be due to the thiols in serum or the unspecific binding of CPPs to serum proteins (Lattig-Tunnemann, G. et al. Backbone rigidity and static presentation of guanidinium groups increases cellular uptake of arginine-rich cell-penetrating peptides. Nat Commun 2, 453, doi:10.1038/ncomms1459 (2011)).

The test system of series [4] is HeLa Kyoto cells. Briefly: Cellular uptake of CPP-bearing cargoes with or without unbound CPP additive, confocal microscopy.
Description: To evaluate the concentration, temperature and cargo-size dependency of added arginine-rich peptides to mediate cytosolic delivery, the inventors chose three distinct cargoes to transport: the organic fluorophore Tetramethylrhodamine (TAMRA, ˜450 Da), the camelid-derived anti-GFP nanobody GBP1 (˜14 kDa) and the fluorescent protein mCherry with a nuclear localization signal (NLS-mCherry, ˜28 kDa). […] We then applied all of the synthesized cargoes to HeLa Kyoto cells (expressing nuclear GFP-PCNA (Leonhardt, H. et al. Dynamics of DNA replication factories in living cells. J Cell Biol 149, 271-280, doi:10.1083/jcb.149.2.271 (2000). Chagin, V. O. et al. 4D Visualization of replication foci in mammalian cells corresponding to individual replicons. Nat Commun 7, 11231, doi:10.1038/ncomms11231 (2016)) as antigen for the nanobody), at both 37 and 4° C.
For microscopy experiments, 20′000 cells (10′000 in the case of the GFP-PCNA HeLa Kyoto cell line^7) were seeded into the wells of a 96-well glass bottom plate. The cells were left to adhere and grow for 24 hours at 37° C. with 5% CO2. For 37° C. experiments, the cells were washed once with DMEM before addition of the protein samples in DMEM. The cells were incubated for 1 hour at 37° C. The cells were then washed three times with DMEM with 10% fetal bovine serum (FBS). Cells were generally imaged live with incubation at 37° C. and 5% CO2. For the quantitative microscopy experiments, the cells were fixed using 4% PFA in PBS for 30 minutes at room temperature after washing.
For 4° C. experiments, the cells were pre-chilled at 4° C. for 1 hour. The cells were then washed with cold DMEM and the proteins were added in cold DMEM to the cells. The cells were incubated at 4° C. for 1 hour. Afterwards, the cells were washed thrice with cold DMEM with 10% FBS, before fixation with 4% PFA in PBS for 30 minutes at room temperature.
Confocal microscopy images were acquired on a Nikon-CSU spinning disc microscope with an CSU—X1 (Andor) and a live cell incubation chamber (OKOlab).
Series [5] deals with cells. In words: Uptake of NLS-mCherry-R10 and Alexa647-Transferrin with endocytosis inhibitors. The conditions noted are these: NLS-mCherry-R10 II 5 μM, additive 5 μM, 37° C.; sodium azide, dynasore, pitstop 2.
Protocol: NLS-mCherry-R10 II at a 5 μM concentration was added to cells in combination with 25 μg/mL Alexa647-Transferrin (Invitrogen) as endocytosis control. Where indicated, 5 μM of the Cys-R10 peptide 2 were added to induce nucleolar delivery of the mCherry.
Series [6] has as its system HeLa CCL-2 cells. Briefly: Cre Stoplight 2.4 reporter, delivery of Cre-exR8, flow cytometry and microscopy. From the text:
To challenge the delivery protocol, the inventors expressed and purified Cre recombinase fused to a C-terminal R8 peptide (Cre-exR8, characterization in FIG. 39). Fusions of Cre recombinase with the arginine-rich HIV TAT peptide have been previously reported to aid in cell uptake (Peitz, M., Pfannkuche, K., Rajewsky, K. & Edenhofer, F. Ability of the hydrophobic FGF and basic TAT peptides to promote cellular uptake of recombinant Cre recombinase: a tool for efficient genetic engineering of mammalian genomes. Proc Natl Acad Sci USA 99, 4489-4494, doi:10.1073/pnas.032068699 (2002)).
For the Cre recombinase experiments, 200′000 cells were seeded in each well of a 12-well plate. The cells were incubated for 24 hours at 37° C. to settle, then transfected with the reporter plasmid (Cre Stoplight 2.4) using Lipofectamine 2000. The cells were incubated for another 24 hours, then treated with Cre recombinase (or medium) in DMEM with 5% FCS and incubated for 24 more hours. Microscopy pictures were then taken, and the cells were detached with accutase, dead cells stained with DAPI and all cells measured on a LSRFortessa (BD Biosciences, USA) flow cytometer. […] At least 10′000 cells were counted for each condition. The gating strategy is illustrated in FIG. 41.

The test system of series [7] is HeLa Kyoto cells. Briefly: Quantitative microscopy of nuclear mCherry fluorescence after co-delivery with R10-peptides. The conditions noted are these: 5 μM mCherry-R10 conjugate II with additive. Here is the method:
To further evaluate the high efficiency of the CPP-peptide additives 1 and 2 in the additive protocol and to probe the impact of the N-terminal thiol functionality, the inventors synthesized additional linear CPPs 3-5 with different thiol derivatives (FIG. 2a). We then co-delivered 5 μM of CPP-conjugates of mCherry either linked to a linear (11) or cyclic R10 (1) (as above in FIG. 1 d-e) together with the newly synthesized peptides 1-5 into HeLa Kyoto cells and used microscopy to measure both nuclear and total fluorescence (representative pictures for all tested conditions in FIG. 12). Thereby, the inventors quantified the desirable delivery to the nucleus and nucleoli (FIG. 2a), and also the amount of unwanted endosomal entrapment (FIG. 13, see example 6 with supporting methods and general methods for details).
Cell culturing is described in the supplementary methods, along with a list of cell lines used in this study. For microscopy experiments, 20′000 cells (10′000 in the case of the GFP-PCNA HeLa Kyoto cell line^7) were seeded into the wells of a 96-well glass bottom plate. The cells were left to adhere and grow for 24 hours at 37° C. with 5% CO2. For 37° C. experiments, the cells were washed once with DMEM before addition of the protein samples in DMEM. The cells were incubated for 1 hour at 37° C. The cells were then washed three times with DMEM with 10% fetal bovine serum (FBS). […] For the quantitative microscopy experiments, the cells were fixed using 4% PFA in PBS for 30 minutes at room temperature after washing.
Quantification of cellular uptake was done using a script for FIJI, see section “Quantification Script”. […] The red fluorescence channel was background subtracted and the red fluorescence within the nuclear mask and outside of it was quantified. Nuclear fluorescence was either normalized to the nuclear area (absolute fluorescence graph in FIG. 2) or to the sum of nuclear and outside fluorescence (relative fluorescence graph in SI FIG. 6). Pearson's correlation coefficient was calculated using the Coloc2 tool in Fiji.

In series [8] the test system is HeLa CLL-2 cells. In words: WST-1 cell viability assay. The conditions noted are these: 10 μM. Here is the method:
Absorbance at 440 nm is indicative of cellular metabolic activity in the processing of WST-1 to the absorbing Formazan. […] The cells were treated with either 5 μM NLS-mCherry-R10 II in DMEM alone (lower panel) or with 10 μM TNB-R10 5 in DMEM (upper panel). After one-hour incubation, cells were washed again in DMEM and treated with 5 μM Calcein AM in DMEM. The morphology of the cells as shown in the differential interference contrast (DIC) images is also unaffected. Scale bars 50 μm. c, Co-delivery of NLS-mCherry-R10 II in presence of Sytox Blue dead cell stain with or without added TNB-R10 5. Scale bars 20 μm.

Series [9] deals with cells. In words: Cellular uptake of mCherry variants (K10, exR10, R5, R8) with or without TNB-R10 5. The text has this: Most of our findings point to an energy-independent mode of uptake, but to probe whether TNB-R10 5 can also lead to endosomal leakage of an entrapped cargo, the inventors used peptide 5 on cells in combination with an mCherry variant (NLS-mCherry-K10 Ilil) that had been modified with a K10 peptide (via maleimide chemistry, see FIG. 8).
The inventors also tested if recombinantly expressed CPP-fusion proteins can be delivered, as these require much less equipment and effort to produce.
In the same vein, the inventors also made mCherry variants modified with R5 and R8 peptides and co-delivered them into cells with TNB-R10 5 (FIGS. 36-37).

Regarding `O=C(O)c1cc(SSc2ccc([N+](=O)[O-])c(C(=O)O)c2)ccc1[N+](=O)[O-]` [Ellman's reagent, 5,5′-dithiobis-(2-nitrobenzoic acid)], the “labelling of cell-surface thiols by maleimide fluorophore after pre-treatment” value in series [1] is reported as “Labelling is dramatically reduced”.
Take “6-chlorohexanoic acid-PEG*-RRRRRRRRRR-Amide ({6‑chlorohexanoyl-AEEA-AEEA}-RRRRRRRRRR-NH2) [compound 17]”: the “nucleolar mCherry staining in transfected cells” value in series [2] is on record as “mCherry in the nucleoli of EGFP-positive cells”.
Regarding `N=C(N)NCCC[C@H](NC(=O)[C@H](CCCNC(=N)N)NC(=O)[C@H](CCCNC(=N)N)NC(=O)[C@H](CCCNC(=N)N)NC(=O)[C@H](CCCNC(=N)N)NC(=O)[C@H](CCCNC(=N)N)NC(=O)[C@H](CCCNC(=N)N)NC(=O)[C@H](CCCNC(=N)N)NC(=O)[C@H](CCCNC(=N)N)NC(=O)[C@H](CCCNC(=N)N)NC(=O)COCCOCCNC(=O)COCCOCCNC(=O)[C@@H](N)CS)C(N)=O` [peptide 2], the “co-delivery efficiency in presence of serum” value is given as “negligible effect on uptake” in series [3] (5% serum or lower) and “reduced efficiency” in [3] (10% serum). In addition, the “performance in presence of serum compared with alkylated variant” value in [3] (NLS-mCherry-R10 II, serum) was “performed significantly better than the alkylated variant 3”. The “cells with nucleolar red fluorescence” value in series [4] (5 μM NLS-mCherry-R10 II with the CPP-additive) is “more than 90%”. In addition, the “nucleolar delivery of NLS-mCherry linked to linear R10 with linear CPP-additive” value in series [4] (5 μM additive, 5 μM NLS-mCherry-R10) is “efficient nucleolar delivery”. In [5], the “nucleolar mCherry in presence of endocytosis inhibitors” value is “could detect nucleolar mCherry regardless of the inhibitor used”. For the same compound, the “expression of the Cre reporter” value in series [6] (1 μM Cre-exR8 with 10 μM peptide vs alone, 5% serum) is reported as “strong increase in expression of the Cre reporter”. Also, in series [6] (Cre-exR8 in presence of additional peptide), the “red fluorescence, epifluorescence microscopy” value is given as “higher incidence of red fluorescence”. Also, the staining after co-delivery result in series [7] was “nuclear/nucleolar staining”.
For `CN[C@@H]1C[C@H]2O[C@@](C)([C@@H]1OC)n1c3ccccc3c3c4c(c5c6ccccc6n2c5c31)C(=O)NC4` [staurosporine], the “effect on cellular metabolic activity (positive control)” value in series [8] is “significant, detrimental effect”.
Turning to “NLS-mCherry-exR10 IV: recombinantly expressed mCherry with a C-terminal R10 peptide, SEQ ID NO: 3”, the “uptake of recombinant CPP-fusion protein” value in [9] (5 μM alone) is “predominantly endosomal uptake”; in series [9] (5 μM with addition of peptide 5) it was “efficiently rescued”.

(Values after patent US20250269046A1, “CELLULAR UPTAKE OF LARGE BIOMOLECULES ENABLED BY CELL-SURFACE-REACTIVE CELL-PENETRATING PEPTIDE ADDITIVES” (FORSCHUNGSVERBUND BERLIN E.V., priority 2021, published 2025).)
